Data reported in patent US5756092A, “Use, in a composition, as cyclooxygenase activator and/or stabilizer, of at least one pyrimidine derivative sustituted at the 6th position and a cyclooxygenase substrate” (SocieteL'Oreal S.A., priority 1995, dated 1998).

Columns and labels:
[1] = target: T1, prostaglandin-endoperoxide synthase (PGHS) (Ovis aries, UniProt P05979); experiment: Measurement of the activating and/or stabilizing power at a given concentration (oxygen consumption, Clark electrode); assay type: biochemical, sheep; settings: 0.5 mM; 37° C.; initial rate; % relative to control
T1 construct: isolated from sheep seminal gland; purchased Cayman Chemical 60100; host or cells: sheep seminal gland
T1 sequence (P05979 25-600): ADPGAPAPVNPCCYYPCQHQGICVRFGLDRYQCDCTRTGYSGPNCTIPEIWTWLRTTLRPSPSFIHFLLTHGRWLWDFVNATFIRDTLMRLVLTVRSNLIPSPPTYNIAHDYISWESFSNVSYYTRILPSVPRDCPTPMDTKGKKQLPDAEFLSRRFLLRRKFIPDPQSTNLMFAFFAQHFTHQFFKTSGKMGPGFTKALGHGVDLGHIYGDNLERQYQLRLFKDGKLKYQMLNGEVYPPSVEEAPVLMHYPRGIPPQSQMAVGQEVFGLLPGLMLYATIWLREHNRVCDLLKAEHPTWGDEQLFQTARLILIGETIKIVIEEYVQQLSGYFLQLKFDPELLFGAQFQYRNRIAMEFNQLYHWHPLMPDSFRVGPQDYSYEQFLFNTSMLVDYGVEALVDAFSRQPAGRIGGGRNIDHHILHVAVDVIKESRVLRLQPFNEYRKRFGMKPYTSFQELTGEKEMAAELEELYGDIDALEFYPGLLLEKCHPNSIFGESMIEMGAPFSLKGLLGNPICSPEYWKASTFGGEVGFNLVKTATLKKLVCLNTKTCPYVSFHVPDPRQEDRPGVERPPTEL
Excerpt: As indicated above, the enzymatic activity of a cyclooxygenase is indicated by a consumption of oxygen. It is therefore possible to monitor the course of the reaction in progress by measuring the consumption of oxygen in the reaction medium and thus to evaluate the activity of the enzyme by measuring the consumption of oxygen.
At time T=0 of the process, a buffered solution containing a cyclooxygenase is introduced into a measuring tank and then the whole is allowed to stabilize for at least one minute.
At time T=1 minute, an appropriate quantity of enzyme substrate is added and the oxygen consumption of the reaction is recorded.
This recording makes it possible to deduce the initial rate of the reaction and the period during which the initial rate of the reaction is maintained.
When a substance potentially having an activity on the cyclooxygenase is tested, the variation of the slope in a positive or negative direction relative to the results obtained with the enzyme alone reflects either the activation or the inhibition of the activity of the enzyme.
Measurement of the activating and/or stabilizing power of pyrimidine derivatives substituted at the 6th position, at a given concentration.
The quantity of oxygen necessary for the oxidation of arachidonic acid is measured by the cyclooxygenase activity of prostaglandin-endoperoxide synthase, in the presence or absence of the derivative to be tested.
The measurements of the consumption of oxygen are performed with a Clark electrode connected to a YSI 5300 oxygen meter of the Yellow Spring Instruments trademark.
These measurements are performed in an open chamber, with constant stirring, at a temperature of 37° C.
If a graph recorder is used, the measurement of the oxygen consumption takes the form of a curve whose maximum slope makes it possible to deduce the initial rate of the reaction, and from which it is possible to calculate the period during which the initial rate of the reaction is maintained.
The measurement of the activity of the derivatives to be tested is performed under the same conditions, by adding, to the reaction medium, the derivative to be tested. It is the variation of the slope and the variation of the period during which the maximum rate is maintained which make it possible to evaluate the activity of the derivative to be tested towards cyclooxygenase.
A solution of 0.1M TRIS and 5 mM EDTA at pH=8.00 (TE solution) is prepared.
The substrate is prepared in the form of a stock solution of potassium arachidonate according to the manufacturer's procedure (Interchim, France).
The solution thus obtained has an arachidonic acid titre of 46 mM. It can be stored at 4° C. for 24 hours.
The derivatives to be tested are prepared in the form of a stock solution with a titre of 5 mM in a water/alcohol mixture (80/20) and tested with the same batch of enzyme.
At t=0, there are introduced into the measuring chamber 380 μl of TEA buffer preheated to 37° C. that are allowed to equilibrate for at least one minute.
At t=1, 300 units of enzyme (PGHS) are introduced.
The recording is initiated and the whole is again allowed to stabilize for one minute. The recording obtained gives the base level of the reaction.
After an additional minute, 10 μl of substrate are introduced and the consumption of oxygen is recorded for 2 to 3 minutes.
The initial rate of the reaction and the period during which this rate is maintained are thus determined.
The experimental conditions are identical to those above, except that the TEA buffer preheated to 37° C. is replaced by an identical buffer containing the derivative to be tested at a concentration of 0.5 mM.

[2] = target: T2, prostaglandin-endoperoxide synthase (Ovis aries, UniProt P05979); experiment: Calculation of the 50% activating concentration (AC 50) for the activation of prostaglandin-endoperoxide synthase; assay type: biochemical, sheep
T2 construct: isolated from sheep seminal gland
T2 sequence (P05979 25-600): T1 sequence (P05979 25-600)
Procedure: Calculation of the 50% activating concentration (AC 50) of 2,4-diamino-6-piperidinopyrimidine 3-oxide for the activation of prostaglandin-endoperoxide synthase. 2,4-diamino-6-piperidinopyrimidine 3-oxide Activation
By a statistical calculation (log-linear regression, the correlation coefficient being 0.98 and the significance of the binding less than or equal to 0.01), an AC 50 is found for 40 μM for 2,4-diamino-6-piperidinopyrimidine 3-oxide.

[3] = U.S. Pat. No. 4,596,812; cited from earlier work
hair growth = settings: U.S. Pat. No. 4,596,812; cited from earlier work
cyclooxygenase = settings: literature; cited from earlier work
lipoxygenase = settings: literature (Bedford et al., 1983); cited from earlier work

In the case of `Nc1cc(N2CCCCC2)nc(N)[n+]1[O-]` [2,4-diamino-6-piperidinopyrimidine 3-oxide], the activation at 500 µM [1] is reported as 58%, the activation at 15.6 µM ([2]; 15.6 μM, read-out: Activation (% of control)) is reported as 23% and the activation at 62.5 µM ([2]; 62.5 μM, read-out: Activation (% of control)) is reported as 61%. For the same molecule, the activation at 125 µM ([2]; 125 μM, read-out: Activation (% of control)) was 90%, the activation at 250 µM ([2]; 250 μM, read-out: Activation (% of control)) was 102% and the activation at 500 µM ([2]; 500 μM, read-out: Activation (% of control)) was 146%. The activation at 1000 µM ([2]; 1000 μM, read-out: Activation (% of control)) was 181%, the AC50 ([2]; log-linear regression, correlation coefficient 0.98) was 40 µM and the antihypertensive effects [3] was “antihypertensive effects”. The “capacity to promote hair growth” value (hair growth) was “capacity to promote hair growth”.

For `CCCCOc1cc(N)[n+]([O-])c(N)n1` [2,4-diamino-6-butyloxypyrimidine 3-oxide], the activation at 500 µM [1] was 13%.

Work on `CCCNc1cc(N(C)C)nc(NCCC)[n+]1[O-]` [2,4-dipropylamino-6-dimethylaminopyrimidine 3-oxide] yielded an activation at 500 µM [1] of 171%.

For `COc1ccc2c(c1)c(CC(=O)O)c(C)n2C(=O)c1ccc(Cl)cc1` [Indomethacin, 1-(4-Chlorobenzoyl)-5-methoxy-2-methyl-1H-indole-3-acetic acid], the activation at 500 µM [1] was -100%.

In the case of `Nc1cc(N2CCCCC2)nc(N)n1` [2,4-diamino-6-piperidinopyrimidine], the activation at 500 µM [1] is reported as -14%.

In the case of `O=C1C(O)=C(O)C(=O)c2cc(Cl)ccc21` [6-chloro-2,3-dihydroxy-1,4-naphthoquinone], the “effect on cyclooxygenase activity” value (cyclooxygenase) is given as “cyclooxygenase stimulating agent” and the effect on lipoxygenase (lipoxygenase) is given as “lipoxygenase inhibitor”.

Work on `CCCNc1cc(N(C)C)nc(N)[n+]1[O-]` [2-amino-4-propylamino-6-dimethylaminopyrimidine 3-oxide] yielded an activation at 500 µM [1] of 117%.

`Cc1nc(N2CCCCC2)cc(N)[n+]1[O-]` [2-methyl-4-amino-6-piperidinopyrimidine 3-oxide] showed an activation at 500 µM [1] of 24%.

In the case of `CCCNc1cc(N2CCCCC2)nc(N)[n+]1[O-]` [2-amino-4-propylamino-6-piperidinopyrimidine 3-oxide], the activation at 500 µM [1] is reported as 173%.
